# In US20250230193A1, “CYCLIC COMPOUND HAVING SELECTIVE KRAS INHIBITORY EFFECT ON HRAS AND NRAS” (CHUGAI SEIYAKU KABUSHIKI KAISHA, priority 2022, published 2025):
# *1 amine or outer side, *2 acyl side, *3 side chain or, on linkers, in order; H or OH if unused. Where a SMILES comes first, the peptide text is derived from it. Bridges are numbered along the chain shown (N, C = ends). [ ]: non-standard residue; d: D form. The star is where a group is joined. X36 = CC(C)CCN([C@@H](Cc1ccc(C(F)(F)F)cc1)C(=O)[*:2])[*:1]; hPhe(3-Cl-4-CF3) = N[C@@H](CCc1ccc(C(F)(F)F)c(Cl)c1)C(=O)O; NPrPhe(4-CF3) = CCCN[C@@H](Cc1ccc(C(F)(F)F)cc1)C(=O)O; NMeGly(cPent) = CN[C@H](C(=O)O)C1CCCC1; Pro(4,4-F2) = O=C(O)[C@@H]1CC(F)(F)CN1; Hyp = O=C(O)[C@@H]1C[C@@H](O)CN1; NMeD = CN[C@@H](CC(=O)O)C(=O)O; NMeL = CN[C@@H](CC(C)C)C(=O)O; NMeAbu = CC[C@H](NC)C(=O)O; Morpholide = C1CN(*)CCO1; Ac5c = NC1(C(=O)O)CCCC1; Ac4c = NC1(C(=O)O)CCC1; Sar = CNCC(=O)O
# How the values were obtained:
# [1] = biological target: GDP-bound HRAS wild-type protein (Homo sapiens, UniProt P01112); test: Binding to HRAS by surface plasmon resonance (SPR), Single Cycle Kinetics; settings: for HRAS/KRAS (ratio of KD value for HRAS to KD value for KRAS) / HRAS/KRAS (ratio of KD value with respect to HRAS to KD value with respect to KRAS): GDP-bound HRAS wild-type vs GDP-bound KRAS wild-type
# [2] = biological target: GDP-bound NRAS wild-type protein (Homo sapiens, UniProt P01111); test: Binding to NRAS by surface plasmon resonance (SPR), Single Cycle Kinetics; settings: for NRAS/KRAS (ratio of KD value for NRAS to KD value for KRAS) / NRAS/KRAS (ratio of KD value with respect to NRAS to KD value with respect to KRAS): GDP-bound NRAS wild-type vs GDP-bound KRAS wild-type
# [3] = SPR, GDP-bound wild-type proteins
# GDP-bound HRAS wild-type protein, sequence (P01112 whole entry): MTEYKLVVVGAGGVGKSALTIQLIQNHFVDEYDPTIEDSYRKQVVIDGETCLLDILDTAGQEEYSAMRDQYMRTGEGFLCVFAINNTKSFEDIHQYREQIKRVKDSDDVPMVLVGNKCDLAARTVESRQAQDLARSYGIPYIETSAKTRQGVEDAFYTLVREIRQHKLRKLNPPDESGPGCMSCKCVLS
# GDP-bound NRAS wild-type protein, sequence (P01111 whole entry): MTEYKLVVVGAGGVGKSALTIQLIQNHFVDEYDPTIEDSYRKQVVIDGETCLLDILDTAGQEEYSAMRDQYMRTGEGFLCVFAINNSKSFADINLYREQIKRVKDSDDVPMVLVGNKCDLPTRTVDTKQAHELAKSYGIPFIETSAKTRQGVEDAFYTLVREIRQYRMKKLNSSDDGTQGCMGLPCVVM
smiles,measurement,setting,value
CCCN(C)C(=O)[C@@H]1CC(=O)N(C)[C@@H](COCC)C(=O)N[C@@H]([C@@H](C)CC)C(=O)N(C)CC(=O)N(C)[C@H]2C/C=C\CCN(C2=O)[C@@H](Cc2ccc(C(F)(F)F)cc2)C(=O)N(C)CC(=O)N[C@@H](CCc2cc(F)c(C(F)(F)F)c(F)c2)C(=O)N2C[C@H](OCC)C[C@H]2C(=O)NC2(CC(C)(C)C2)C(=O)N(C)[C@@H](C2CCCC2)C(=O)N1C [PP2031],HRAS/KRAS (ratio of KD value for HRAS to KD value for KRAS),[1]; SPR,B (a compound having 3 or more and less than 10 is denoted as B)
same,NRAS/KRAS (ratio of KD value for NRAS to KD value for KRAS),[2]; SPR,B (a compound having 3 or more and less than 10 is denoted as B)
CCO[C@@H]1C[C@H]2C(=O)NC3(CCC3)C(=O)N(C)[C@@H](C3CCCC3)C(=O)N(C)[C@H](C(=O)N(C)C)CC(=O)N(C)[C@@H](Cc3cccnc3)C(=O)N[C@@H]([C@@H](C)CC)C(=O)N(C)CC(=O)N(C)[C@H]3CCCCN(C3=O)[C@@H](Cc3ccc(C(F)(F)F)cc3)C(=O)N(C)CC(=O)N[C@@H](CCc3cc(F)c(C(F)(F)F)c(F)c3)C(=O)N2C1 [PP0703],HRAS/KRAS (ratio of KD value with respect to GDP-bound HRAS wild-type protein to KD value with respect to KRAS),[1]; SPR,B (a compound having 3 or more and less than 10 is denoted as B)
same,NRAS/KRAS (ratio of KD value with respect to GDP-bound NRAS wild-type protein to KD value with respect to KRAS),[2]; SPR,C (A compound having a KD ratio of 0.1 or more and less than 3 is denoted as C)
CCC[C@H]1C(=O)N[C@@H]([C@@H](C)CC)C(=O)N(C)CC(=O)N(C)[C@H]2C/C=C\CCN(C2=O)[C@@H](Cc2ccc(C(F)(F)F)cc2)C(=O)N(C)CC(=O)N[C@@H](CCc2ccc(C(F)(F)F)c(Cl)c2)C(=O)N2CCCC[C@H]2C(=O)NC2(CC(C)(C)C2)C(=O)N(C)[C@@H](C(CC)CC)C(=O)N(C)[C@H](C(=O)N(C)C)CC(=O)N1C [PP2928],HRAS/KRAS (ratio of KD value with respect to GDP-bound HRAS wild-type protein to KD value with respect to KRAS),[1]; class symbols,A (a compound having 10 or more and less than 20 is denoted as A)
same,NRAS/KRAS (ratio of KD value with respect to GDP-bound NRAS wild-type protein to KD value with respect to KRAS),[2]; class symbols,AA (a compound having 20 or more is denoted as AA)
CC[C@H](C)[C@@H]1NC(=O)[C@H](CC(C)C)N(C)C(=O)C[C@@H](C(=O)N2CCOCC2)N(C)C(=O)[C@H](C2CCCC2)N(C)C(=O)C2(CCCC2)NC(=O)[C@@H]2CCCN2C(=O)[C@H](CCc2ccc(C(F)(F)F)c(Cl)c2)NC(=O)CN(C)C(=O)[C@H](Cc2ccc(C(F)(F)F)cc2)N(CCC(C)C)C(=O)CN(C)C(=O)CN(C)C1=O [PP0126] ([NMeL]I[Sar][Sar][X36][Sar][hPhe(3-Cl-4-CF3)]P[Ac5c][NMeGly(cPent)][NMeD]-Morpholide; lactam N-11),HRAS/KRAS (ratio of KD for GDP-bound HRAS wild-type to KD for KRAS),[1]; SPR,C (A compound having a KD ratio of 0.1 or more and less than 3 is denoted as C)
same,NRAS/KRAS (ratio of KD for GDP-bound NRAS wild-type to KD for KRAS),[2]; SPR,C (A compound having a KD ratio of 0.1 or more and less than 3 is denoted as C)
CCCN(C)C(=O)[C@@H]1CC(=O)N(C)[C@@H](COCC)C(=O)N[C@@H]([C@@H](C)CC)C(=O)N(C)CC(=O)N(C)[C@H]2C/C=C\CCN(C2=O)[C@@H](Cc2ccc(C(F)(F)F)cc2)C(=O)N(C)CC(=O)N[C@@H](CCc2cc(F)c(C(F)(F)F)c(F)c2)C(=O)N2C[C@@H](C)C[C@H]2C(=O)NC2(CC(C)(C)C2)C(=O)N(C)[C@@H](C2CCCC2)C(=O)N1C [PP2041],HRAS/KRAS (ratio of KD value with respect to HRAS to KD value with respect to KRAS),[1]; SPR,A (a compound having 10 or more and less than 20 is denoted as A)
same,NRAS/KRAS (ratio of KD value with respect to NRAS to KD value with respect to KRAS),[2]; SPR,A (a compound having 10 or more and less than 20 is denoted as A)
"CCCN1C(=O)CN(C)C(=O)CNC(=O)[C@H]([C@@H](C)CC)NC(=O)[C@H](CC(C)C)N(C)C(=O)C[C@@H](C(=O)N(C)C)NC(=O)[C@H](C2CCCC2)N(C)C(=O)C2(CCC2)NC(=O)[C@@H]2CC(F)(F)CN2C(=O)[C@H](CCc2ccc(C(F)(F)F)c(Cl)c2)NC(=O)CN(C)C(=O)[C@@H]1Cc1ccc(C(F)(F)F)cc1 [PP0364] ([NMeL]IG[Sar][NPrPhe(4-CF3)][Sar][hPhe(3-Cl-4-CF3)][Pro(4,4-F2)][Ac4c][NMeGly(cPent)]D-NMe2; lactam N-11)",HRAS/KRAS (ratio of KD for GDP-bound HRAS wild-type to KD for KRAS),[1]; SPR,B (a compound having 3 or more and less than 10 is denoted as B)
same,NRAS/KRAS (ratio of KD for GDP-bound NRAS wild-type to KD for KRAS),[2]; SPR,B (a compound having 3 or more and less than 10 is denoted as B)
CCC[C@H]1C(=O)N[C@@H](C2CCCCC2)C(=O)N(C)CC(=O)N(C)[C@H]2C/C=C\CCN(C2=O)[C@@H](Cc2ccc(C(F)(F)F)cc2)C(=O)N(C)CC(=O)N[C@@H](CCc2ccc(C(F)(F)F)c(Cl)c2)C(=O)N2C[C@H](OCC)C[C@H]2C(=O)NC2(CC(C)(C)C2)C(=O)N(C)[C@@H](CC(C)C)C(=O)N(C)[C@H](C(=O)N(C)C)CC(=O)N1C [PP3017],HRAS/KRAS (ratio of KD value with respect to GDP-bound HRAS wild-type protein to KD value with respect to KRAS),[1]; [3],A (a compound having 10 or more and less than 20 is denoted as A)
same,NRAS/KRAS (ratio of KD value with respect to GDP-bound NRAS wild-type protein to KD value with respect to KRAS),[2]; [3],AA (a compound having 20 or more is denoted as AA)
CCO[C@@H]1C[C@H]2C(=O)N(C)C3(CCC3)C(=O)N(C)[C@@H](C3CCCC3)C(=O)N(C)[C@H](C(=O)N(C)C)CC(=O)N(C)[C@@H](CC)C(=O)N[C@@H]([C@@H](C)CC)C(=O)N(C)CC(=O)N(C)[C@H]3C/C=C\CCN(C3=O)[C@@H](Cc3ccc(C(F)(F)F)cc3)C(=O)N(C)CC(=O)N[C@@H](CCc3cc(F)c(C(F)(F)F)c(F)c3)C(=O)N2C1 [PP1779],HRAS/KRAS (ratio of KD value for HRAS to KD value for KRAS),[1]; SPR,B (a compound having 3 or more and less than 10 is denoted as B)
same,NRAS/KRAS (ratio of KD value for NRAS to KD value for KRAS),[2]; SPR,A (a compound having 10 or more and less than 20 is denoted as A)
"CCCO[C@@H]1C[C@H]2C(=O)NC3(CC(C)(C)C3)C(=O)N(C)[C@@H](C3CCCC3)C(=O)N(C)[C@H](C(=O)N3CCCC3)CC(=O)N(C)[C@H]3CCCCc4ccc(cc4)C[C@@H](C(=O)N(C)CC(=O)N[C@@H](CCc4ccc(C(F)(F)F)c(OC)c4)C(=O)N2C1)N1CC/C=C\C[C@@H](C1=O)N(C)C(=O)CN(C)C(=O)[C@H]([C@@H](C)CC)NC3=O [PP3094, (1S,7S,11R,13S,19S,22S,26S,29S,35S,37Z)-19-cyclopentyl-7-[2-[3-methoxy-4-(trifluoromethyl)phenyl]ethyl]-3,3′,3′,18,21,25,31,34-octamethyl-29-[(1S)-1-methylpropyl]-11-propoxy-22-(pyrrolidine-1-carbonyl)spiro[3,6,9,15,18,21,25,28,31,34,41-undecazapentacyclo[24.15.9.2^43,46.1^35,41.0^9,13]tripentaconta-37,43(52),44,46(51)-tetraene-16,1′-cyclobutane]-2,5,8,14,17,20,24,27,30,33,53-undecone]",HRAS/KRAS (ratio of KD value with respect to GDP-bound HRAS wild-type protein to KD value with respect to KRAS),[1]; [3],B (a compound having 3 or more and less than 10 is denoted as B)
same,NRAS/KRAS (ratio of KD value with respect to GDP-bound NRAS wild-type protein to KD value with respect to KRAS),[2]; [3],A (a compound having 10 or more and less than 20 is denoted as A)
CCCN1C(=O)CN(C)C(=O)CN(C)C(=O)[C@H]([C@@H](C)CC)NC(=O)[C@H](CC(C)C)N(C)C(=O)C[C@@H](C(=O)N2CCOCC2)N(C)C(=O)[C@H](C2CCCC2)N(C)C(=O)C2(CCC2)NC(=O)[C@H](CC)N(C)C(=O)[C@H](CCc2ccc(C(F)(F)F)c(Cl)c2)NC(=O)CN(C)C(=O)[C@@H]1Cc1ccc(C(F)(F)F)cc1 [PP1918] ([NMeL]I[Sar][Sar][NPrPhe(4-CF3)][Sar][hPhe(3-Cl-4-CF3)][NMeAbu][Ac4c][NMeGly(cPent)][NMeD]-Morpholide; lactam N-11),HRAS/KRAS (ratio of KD value for HRAS to KD value for KRAS),[1]; SPR,C (A compound having a KD ratio of 0.1 or more and less than 3 is denoted as C)
same,NRAS/KRAS (ratio of KD value for NRAS to KD value for KRAS),[2]; SPR,B (a compound having 3 or more and less than 10 is denoted as B)
CCCN1C(=O)CN(C)C(=O)CN(C)C(=O)[C@H]([C@@H](C)CC)NC(=O)[C@H](CC(C)C)N(C)C(=O)C[C@@H](C(=O)N2CCOCC2)N(C)C(=O)[C@H](C2CCCC2)N(C)C(=O)C2(CCCC2)NC(=O)[C@@H]2C[C@@H](OCC)CN2C(=O)[C@H](CCc2ccc(C(F)(F)F)c(Cl)c2)NC(=O)CN(C)C(=O)[C@@H]1Cc1ccc(C(F)(F)F)cc1 [PP0233] ([NMeL]I[Sar][Sar][NPrPhe(4-CF3)][Sar][hPhe(3-Cl-4-CF3)][Hyp](Et)[Ac5c][NMeGly(cPent)][NMeD]-Morpholide; lactam N-11),HRAS/KRAS (ratio of KD for GDP-bound HRAS wild-type to KD for KRAS),[1]; SPR,C (A compound having a KD ratio of 0.1 or more and less than 3 is denoted as C)
same,NRAS/KRAS (ratio of KD for GDP-bound NRAS wild-type to KD for KRAS),[2]; SPR,B (a compound having 3 or more and less than 10 is denoted as B)
CCC[C@H]1C(=O)N[C@@H]([C@H](C)CC)C(=O)N(C)CC(=O)N(C)[C@H]2C/C=C\CCN(C2=O)[C@@H](Cc2ccc(C)cc2)C(=O)N(C)CC(=O)N[C@@H](CCc2ccc(C(F)(F)F)c(Cl)c2)C(=O)N2C[C@H](OCC)C[C@H]2C(=O)NC2(CC(C)(C)C2)C(=O)N(C)[C@@H](C2CCCC2)C(=O)N(C)[C@H](C(=O)N(C)C)CC(=O)N1C [PP2221],HRAS/KRAS (ratio of KD value with respect to HRAS to KD value with respect to KRAS),[1]; SPR,A (a compound having 10 or more and less than 20 is denoted as A)
same,NRAS/KRAS (ratio of KD value with respect to NRAS to KD value with respect to KRAS),[2]; SPR,A (a compound having 10 or more and less than 20 is denoted as A)
CCC[C@H]1C(=O)N[C@@H]([C@@H](C)CC)C(=O)N(C)CC(=O)N(C)[C@H]2C/C=C\CCN(C2=O)[C@@H](Cc2ccc(C(F)(F)F)cc2)C(=O)N(C)CC(=O)N[C@@H](CCc2ccc(C(F)(F)F)c(Cl)c2)C(=O)N2C[C@H](OCC)C[C@H]2C(=O)NC2(CC(C)(C)C2)C(=O)N(C)[C@@H](C2CCCC2)C(=O)N(C)[C@H](C(=O)N(C)C)CC(=O)N1C [PP1748],HRAS/KRAS (ratio of KD value for HRAS to KD value for KRAS),[1]; SPR,B (a compound having 3 or more and less than 10 is denoted as B)
same,NRAS/KRAS (ratio of KD value for NRAS to KD value for KRAS),[2]; SPR,A (a compound having 10 or more and less than 20 is denoted as A)
